Assay results reported in article PMC7413254 (Nature Communications, 2020).

Columns and labels:
[1] = system: non-expressing oocytes; format: cell-based, Xenopus laevis; details: footnote b: highest intracellular concentration tested was 30 mM (solubility); for Trans-stimulation: total [3H]CQ transport, non-expressing oocytes: mean ± SEM, SEM; for Trans-stimulation data: total [3H]CQ transport: non-expressing oocytes, normalised to the oocyte type control (control = 100)
Method: Unless specified otherwise, the transport assays were conducted over 1.5 h at 27.5 °C and the reaction buffer was ND96 (96 mM NaCl, 2 mM KCl, 1 mM MgCl2, 1.8 mM CaCl2, 10 mM MES and 10 mM Tris-base) at pH 5.5.
The intracellular concentrations were calculated using previous estimates of the volume of stage V–VI oocytes (~400 nL[60]). […] The oocytes were injected with VF-6 suspended in 25 nL ND96 buffer adjusted to pH 5.0, 5.5, 6.0 or 7.0, which corresponded to the injection of 2.5–250 fmol of H^+. The Na^+-dependence of the trans-stimulatory effect of VF-6 was assessed by injecting the oocytes with VF-6 suspended in ND96 buffer (pH 5.5) or a Na^+-free version of this buffer (the Na^+ was replaced with choline).
At least four independent experiments were performed (on different days and using oocytes from different frogs), and within each experiment measurements were made from ten oocytes per treatment.

[2] = molecular target: T1, PfCRT^Dd2 (Plasmodium falciparum, UniProt Q9N623, A220S/I356T/K76T/M74I/N326S/N75E/Q271E/R371I); test: cell-based; format: cell-based; details: for Trans-stimulation data: total [3H]CQ transport / PfCRT-mediated [3H]CQ transport, trans-stimulation (% PfCRTDd2 control): PfCRTDd2 oocytes; for Trans-stimulation data: total [3H]CQ transport / Trans-stimulation: total [3H]CQ transport, PfCRTDd2 oocytes: footnote b: highest intracellular concentration tested was 30 mM (solubility); for Trans-stimulation data: total [3H]CQ transport: normalised to the oocyte type control (control = 100); for PfCRT-mediated [3H]CQ transport, trans-stimulation by injected solute, PfCRTDd2 / Trans-stimulation data: PfCRT-mediated [3H]CQ transport: footnote b: due to solubility the highest intracellular concentration tested was 30 mM; for PfCRT-mediated [3H]CQ transport, trans-stimulation by injected solute, PfCRTDd2: background subtracted; for Trans-stimulation: total [3H]CQ transport, PfCRTDd2 oocytes: mean ± SEM, SEM; for Trans-stimulation data: PfCRT-mediated [3H]CQ transport: normalised to the oocyte type control = 100
T1 sequence (Q9N623 whole entry A220S/I356T/K76T/M74I/N326S/N75E/Q271E/R371I): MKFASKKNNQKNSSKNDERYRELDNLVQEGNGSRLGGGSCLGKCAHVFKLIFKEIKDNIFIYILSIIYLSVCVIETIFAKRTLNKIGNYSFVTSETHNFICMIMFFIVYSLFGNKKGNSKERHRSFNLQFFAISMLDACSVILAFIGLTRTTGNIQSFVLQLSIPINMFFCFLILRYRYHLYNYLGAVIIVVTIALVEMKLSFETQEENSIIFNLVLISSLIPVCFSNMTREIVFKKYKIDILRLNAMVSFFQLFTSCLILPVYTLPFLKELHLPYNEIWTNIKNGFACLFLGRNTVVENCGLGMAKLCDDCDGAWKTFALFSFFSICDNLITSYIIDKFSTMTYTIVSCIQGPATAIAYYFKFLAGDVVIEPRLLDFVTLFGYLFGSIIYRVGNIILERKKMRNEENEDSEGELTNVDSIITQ
Outline: (§1)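 Transport measured in Xenopus oocytes expressing the transporters, 1.5 h at 27.5 °C in ND96 pH 5.5 unless noted. For trans-stimulation, VF-6 injected in 25 nL ND96 at pH 5.0–7.0 or Na^+-free (choline) buffer; intracellular levels based on ~400 nL oocyte volume. Ten oocytes per treatment, ≥4 experiments.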

[3] = molecular target: T2, PfCRT^Ecu1110 (Plasmodium falciparum, UniProt Q9N623, A220S/I356L/K76T/N326D); test: cell-based; format: cell-based; details: for Trans-stimulation data: total [3H]CQ transport / PfCRT-mediated [3H]CQ transport, trans-stimulation (% PfCRTEcu1110 control): PfCRTEcu1110 oocytes; for Trans-stimulation data: total [3H]CQ transport / Trans-stimulation: total [3H]CQ transport, PfCRTEcu1110 oocytes: footnote b: highest intracellular concentration tested was 30 mM (solubility); for Trans-stimulation data: total [3H]CQ transport: normalised to the oocyte type control (control = 100); for Trans-stimulation: total [3H]CQ transport, PfCRTEcu1110 oocytes: mean ± SEM, SEM; for Trans-stimulation data: PfCRT-mediated [3H]CQ transport: footnote b: due to solubility the highest intracellular concentration tested was 30 mM, normalised to the oocyte type control = 100
T2 sequence (Q9N623 whole entry A220S/I356L/K76T/N326D): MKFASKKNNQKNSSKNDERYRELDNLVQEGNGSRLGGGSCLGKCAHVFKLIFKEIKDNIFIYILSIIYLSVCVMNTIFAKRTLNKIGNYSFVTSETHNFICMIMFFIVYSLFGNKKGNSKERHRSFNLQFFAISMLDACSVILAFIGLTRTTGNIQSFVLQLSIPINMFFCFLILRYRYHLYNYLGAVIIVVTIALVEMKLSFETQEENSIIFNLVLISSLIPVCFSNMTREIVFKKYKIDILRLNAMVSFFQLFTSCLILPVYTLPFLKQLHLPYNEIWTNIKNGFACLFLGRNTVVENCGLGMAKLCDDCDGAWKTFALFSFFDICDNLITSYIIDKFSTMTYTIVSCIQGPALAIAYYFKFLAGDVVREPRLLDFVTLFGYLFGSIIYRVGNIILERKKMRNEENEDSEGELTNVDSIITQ
Outline: as §1

[4] = molecular target: PfCRT^3D7 (Plasmodium falciparum, UniProt Q8IBZ9); test: cell-based; format: cell-based; details: for Trans-stimulation data: PfCRT-mediated [3H]CQ transport: 2nd of 6 trans-stimulation columns, footnote b: due to solubility the highest intracellular concentration tested was 30 mM, normalised to the oocyte type control = 100; for Trans-stimulation data: total [3H]CQ transport / PfCRT-mediated [3H]CQ transport, trans-stimulation (% PfCRT3D7 control): PfCRT3D7 oocytes; for Trans-stimulation data: total [3H]CQ transport / Trans-stimulation: total [3H]CQ transport, PfCRT3D7 oocytes: footnote b: highest intracellular concentration tested was 30 mM (solubility); for Trans-stimulation data: total [3H]CQ transport: normalised to the oocyte type control (control = 100); for Trans-stimulation: total [3H]CQ transport, PfCRT3D7 oocytes: mean ± SEM, SEM
Chain of PfCRT^3D7 (Q8IBZ9 59-398): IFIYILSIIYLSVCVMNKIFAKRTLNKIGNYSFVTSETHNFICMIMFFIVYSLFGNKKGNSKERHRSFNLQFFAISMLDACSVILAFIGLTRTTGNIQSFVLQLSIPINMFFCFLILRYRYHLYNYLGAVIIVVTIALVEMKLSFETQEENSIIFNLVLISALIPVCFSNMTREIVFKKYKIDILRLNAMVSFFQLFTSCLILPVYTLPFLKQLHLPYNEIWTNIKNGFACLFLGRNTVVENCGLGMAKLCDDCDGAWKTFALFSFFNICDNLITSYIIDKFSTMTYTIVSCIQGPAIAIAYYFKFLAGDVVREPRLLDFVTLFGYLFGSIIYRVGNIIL
Outline: as §1

[5] = molecular target: T3, PfNT1 (Plasmodium falciparum, UniProt Q8IDM6); test: cell-based; format: cell-based; details: footnote b: highest intracellular concentration tested was 30 mM (solubility); for Trans-stimulation data: total [3H]CQ transport: PfNT1 oocytes, normalised to the oocyte type control (control = 100); for Trans-stimulation: total [3H]CQ transport, PfNT1 oocytes: mean ± SEM, SEM
T3 construct: expressed in transfected cells; host or cells: Xenopus laevis oocytes (stage V-VI), cRNA-injected
T3 sequence (Q8IDM6 whole entry): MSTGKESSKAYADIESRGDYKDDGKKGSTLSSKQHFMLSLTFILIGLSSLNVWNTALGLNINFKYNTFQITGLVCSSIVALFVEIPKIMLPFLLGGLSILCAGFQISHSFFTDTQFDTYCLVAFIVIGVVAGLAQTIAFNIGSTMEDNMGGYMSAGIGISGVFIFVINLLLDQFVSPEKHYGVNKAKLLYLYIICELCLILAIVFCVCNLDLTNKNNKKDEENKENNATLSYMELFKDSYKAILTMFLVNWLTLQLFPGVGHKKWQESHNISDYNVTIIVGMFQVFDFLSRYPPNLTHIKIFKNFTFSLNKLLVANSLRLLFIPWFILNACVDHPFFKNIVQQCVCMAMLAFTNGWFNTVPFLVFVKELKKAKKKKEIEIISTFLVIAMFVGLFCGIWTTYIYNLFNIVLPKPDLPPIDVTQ
Outline: as §1

[6] = molecular target: T1, PfCRT^Dd2; test: [3H]CQ uptake into Xenopus oocytes, cis-inhibition by unlabelled solute; format: cell-based; details: PfCRTDd2 oocytes, background [3H]CQ accumulation subtracted, normalised to oocyte type control
Outline: (§2)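 Assay buffer ND96 (10 mM MES, 10 mM Tris-base) held at pH 5.5 to mimic vacuole lumen; uptake measured inward from this acidic medium over 1.5 h at 27.5 °C.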

[7] = molecular target: T2, PfCRT^Ecu1110; test: as above; format: cell-based; details: PfCRTEcu1110 oocytes, background [3H]CQ accumulation subtracted, normalised to oocyte type control
Outline: as §2

[8] = [test solute]i = 5 mM (intracellular), normalised to oocyte type control
[9] = cell marked b: highest intracellular concentration tested was 30 mM due to solubility

In the case of VEPSDTIENVK [VK-11], the “Trans-stimulation: total [3H]CQ transport, non-expressing oocytes” value (“Trans-stimulation … non-expressing oocytes” below) [1] is reported as 3.1 ± 0.08b % of PfCRTDd2 control, the “Trans-stimulation data: total [3H]CQ transport” value (“Trans-stimulation data: total” below) [1] is reported as 98 ± 2.5b and the “Trans-stimulation data: total” value [2] is reported as 98 ± 3.8b. The “PfCRT-mediated [3H]CQ transport, trans-stimulation by injected solute, PfCRTDd2” value (“PfCRT-mediated … by injected solute, PfCRTDd2” for short) [2] was 96 ± 2.1b % of PfCRTDd2 control, the “Trans-stimulation: total [3H]CQ transport, PfCRTDd2 oocytes” value (from here on “Trans-stimulation … PfCRTDd2 oocytes”) [2] was 98 ± 3.8b % of PfCRTDd2 control and the “Trans-stimulation data: PfCRT-mediated [3H]CQ transport” value (shortened to “Trans-stimulation data: PfCRT-mediated”) [2] was 96 ± 2.1b. The “Trans-stimulation data: total” value [3] was 131 ± 2.1b, the “Trans-stimulation: total [3H]CQ transport, PfCRTEcu1110 oocytes” value (“Trans-stimulation … PfCRTEcu1110 oocytes” below) [3] was 42 ± 2.1b % of PfCRTDd2 control and the “Trans-stimulation data: PfCRT-mediated” value [3] was 127 ± 1.9b. The “Trans-stimulation data: PfCRT-mediated” value [4] was 158 ± 1.9b, the “Trans-stimulation data: total” value [4] was 163 ± 3.2b and the “Trans-stimulation: total [3H]CQ transport, PfCRT3D7 oocytes” value (from here on “Trans-stimulation … PfCRT3D7 oocytes”) [4] was 15 ± 0.3b % of PfCRTDd2 control. The “Trans-stimulation data: total” value [5] was 98 ± 3.3b and the “Trans-stimulation: total [3H]CQ transport, PfNT1 oocytes” value (shortened to “Trans-stimulation … PfNT1 oocytes”) [5] was 2.7 ± 0.03b % of PfCRTDd2 control.

For VHLTPEEKSAVT [VT-12], the “Trans-stimulation … non-expressing oocytes” value [1] was 2.2 ± 0.03b % of PfCRTDd2 control, the “Trans-stimulation data: total” value [2] was 100 ± 2.6b and the “PfCRT-mediated … by injected solute, PfCRTDd2” value [2] was 98 ± 2.2b % of PfCRTDd2 control. The “Trans-stimulation … PfCRTDd2 oocytes” value [2] was 100 ± 2.6b % of PfCRTDd2 control, the “Trans-stimulation data: PfCRT-mediated” value [2] was 98 ± 2.2b and the “Trans-stimulation data: total” value [3] was 101 ± 3.2b. For the same sequence, the “Trans-stimulation … PfCRTEcu1110 oocytes” value [3] was 33 ± 1.6b % of PfCRTDd2 control, the “Trans-stimulation data: PfCRT-mediated” value [3] was 99 ± 2.9b and the “Trans-stimulation data: PfCRT-mediated” value [4] was 97 ± 2.9b. For the same sequence, the “Trans-stimulation data: total” value [4] was 99 ± 3.5b, the “Trans-stimulation … PfCRT3D7 oocytes” value [4] was 3.1 ± 0.06b % of PfCRTDd2 control and the “Trans-stimulation data: total” value [5] was 100 ± 2.8b. The “Trans-stimulation … PfNT1 oocytes” value [5] was 2.7 ± 0.06b % of PfCRTDd2 control.

In the case of YFPHFDLS [YS-8], the “PfCRT-mediated [3H]CQ transport, cis-inhibition (% PfCRTDd2 control)” value ([6]; [test solute] = 0.5 mM) is reported as 38 ± 2.7 % PfCRTDd2 control, the “PfCRT-mediated [3H]CQ transport, cis-inhibition (% PfCRTDd2 control)” value ([6]; [test solute] = 1 mM) is reported as 28 ± 0.5 % PfCRTDd2 control and the “PfCRT-mediated [3H]CQ transport, cis-inhibition (% PfCRTDd2 control)” value ([6]; [test solute] = 2 mM) is reported as 17 ± 0.1 % PfCRTDd2 control. The “PfCRT-mediated [3H]CQ transport, cis-inhibition (% PfCRTEcu1110 control)” value ([7]; [test solute] = 0.5 mM) was 43 ± 3.2 % PfCRTEcu1110 control, the “PfCRT-mediated [3H]CQ transport, cis-inhibition (% PfCRTEcu1110 control)” value ([7]; [test solute] = 1 mM) was 33 ± 2.6 % PfCRTEcu1110 control and the “PfCRT-mediated [3H]CQ transport, cis-inhibition (% PfCRTEcu1110 control)” value ([7]; [test solute] = 2 mM) was 25 ± 1.5 % PfCRTEcu1110 control. For the same sequence, the “Trans-stimulation … non-expressing oocytes” value [1] was 2.8 ± 0.05b % of PfCRTDd2 control, the “Trans-stimulation data: total” value [1] was 100 ± 2.8b and the “Trans-stimulation data: total” value [2] was 99 ± 2.8b. For the same sequence, the “PfCRT-mediated [3H]CQ transport, trans-stimulation (% PfCRTDd2 control)” value [2, 8] was 98 ± 1.1 % PfCRTDd2 control, the “PfCRT-mediated [3H]CQ transport, trans-stimulation (% PfCRTDd2 control)” value [2, 9] was 97 ± 1.7b % PfCRTDd2 control and the “PfCRT-mediated … by injected solute, PfCRTDd2” value [2] was 97 ± 1.7b % of PfCRTDd2 control. For the same sequence, the “Trans-stimulation … PfCRTDd2 oocytes” value [2] was 99 ± 2.8b % of PfCRTDd2 control, the “Trans-stimulation data: total” value [3] was 99 ± 3.8b and the “PfCRT-mediated [3H]CQ transport, trans-stimulation (% PfCRTEcu1110 control)” value [3, 8] was 98 ± 3.1 % PfCRTEcu1110 control. The “PfCRT-mediated [3H]CQ transport, trans-stimulation (% PfCRTEcu1110 control)” value [3, 9] was 97 ± 1.5b % PfCRTEcu1110 control, the “Trans-stimulation … PfCRTEcu1110 oocytes” value [3] was 32 ± 1.9b % of PfCRTDd2 control and the “Trans-stimulation data: total” value [4] was 100 ± 3.5b. For the same sequence, the “PfCRT-mediated [3H]CQ transport, trans-stimulation (% PfCRT3D7 control)” value [4, 8] was 96 ± 2.8 % PfCRT3D7 control, the “PfCRT-mediated [3H]CQ transport, trans-stimulation (% PfCRT3D7 control)” value [4, 9] was 98 ± 2.8b % PfCRT3D7 control and the “Trans-stimulation … PfCRT3D7 oocytes” value [4] was 3.1 ± 0.04b % of PfCRTDd2 control. For the same sequence, the “Trans-stimulation data: total” value [5] was 98 ± 3.5b and the “Trans-stimulation … PfNT1 oocytes” value [5] was 3.3 ± 0.08b % of PfCRTDd2 control.
